How the values were obtained:
Type in all cases: cell-based, murine
[1] = tested on: ATP-activated LPS-primed J774A.1 macrophages; assay: PKC-α and AKT phosphorylation by Western blot
Method: Cells were washed twice with ice-cold phosphate-buffered saline (PBS) and lysed on ice for 5 min with lysis buffer (20 mM Tris-HCl, pH 7.5, 150 mM NaCl, 1 mM Na 2EDTA, 1 mM EGTA, 1% Triton X-100, 2.5 mM sodium pyrophosphate, 1 mM beta-glycerophosphate, 1 mM Na 3VO4, 1 µg/ml of leupeptin, 1 mM PMSF, protease inhibitor cocktail). The lysate was then centrifuged at 12,000 x g at 4 °C for 10 min and the pellet discarded. […]
In (C), LPS-primed J774A.1 macrophages (1 × 10^6/ml; 1 ml) were incubated for 30 min with 20 µM compound 1h or DMSO (vehicle) followed by ATP (5 mM) stimulation for 0-60 min, then phosphorylation of PKC-α was analyzed by Western blotting and expressed as the fold increase measured as the intensity of the PKC-α band divided by that of the actin band normalized to the corresponding value for DMSO at 0 minutes.

[2] = tested on: NLRP3 inflammasome in LPS + ATP-activated JAWSII cells; assay: NLRP3 inflammasome-mediated IL-1β secretion
[3] = tested on: LPS-activated RAW 264.7 macrophages; assay: NO production inhibitory assay (Griess reaction)
Method: RAW 264.7 cells seeded in 24-well plates at a density of 5 × 10^5 cells/ml (1 ml) were incubated for 24 h with or without LPS (1 µg/ml) in the absence or presence of the test samples, then NO production was measured indirectly by analysis of nitrite levels using the Griess reaction.
To investigate the inhibitory effect of compounds 1h, 1i, and 1n on the LPS-induced inflammatory response, NO levels in the supernatants of RAW 264.7 macrophages incubated with DMSO (vehicle) or compound 1h, 1i, or 1n for 30 min before, and during, incubation for 24 h with LPS (1 µg/ml) were measured by the Griess reaction. […] We next investigated their effect on the expression of iNOS, the NO producing enzyme, using Western blots.
Figure 2 Effect of polyenylpyrrole derivatives on the expression of inflammatory mediators in LPS-stimulated RAW 264.7 macrophages. In (A) and (C), the cells (5 × 10^5/ml; 1 ml) were incubated for 30 min with 2.5-40 µM compound 1h, 1i, or 1n or DMSO (vehicle), then LPS (1 µg/ml) was added and incubation continued for 24 h, then NO (A) or IL-6 or TNF-α (C) in the culture medium was assayed by the Griess reaction or ELISA, respectively. In (B), cells (5 × 10^5/ml; 1 ml) were pretreated for 30 min with 2.5-40 µM compound 1h or DMSO, then LPS (1 µg/ml) was added and incubation continued for 24 h, then expression of iNOS and COX-2 was measured by Western blotting. The fold increase is the intensity of the band of interest divided by that of the actin band normalized to the corresponding value for the 0 LPS/0 inhibitor control.

Q: What does the source list for `O=c1cc(O)cc(/C=C/C=C/C=C/C=C/c2[nH]ccc2Cl)o1` [compound 1h]?
A: ATP-induced PKC-α phosphorylation ([1]; LPS-primed J774A.1, 20 µM 30 min, ATP 5 mM 0-60 min): significant inhibition of ATP-induced PKC-α phosphorylation at 20-60 min; ATP-induced AKT phosphorylation ([1]; LPS-primed macrophages (data not shown)): did not reduce ATP-induced AKT phosphorylation; NLRP3 inflammasome-mediated IL-1β secretion [2]: reduced NLRP3 inflammasome-mediated interleukin-1β (IL-1β) secretion; NO production by LPS-activated cells ([3]; 2.5-40 µM, 30 min before and during LPS 1 µg/ml 24 h): decreased NO production by LPS-activated cells in a dose-dependent manner; ED50 (inhibition of LPS-induced NO production) ([3]; RAW 264.7 macrophages, LPS 1 µg/ml, 24 h, Griess reaction): 15 ± 2 µM; NO levels produced by non-activated cells ([3]; compound alone, no LPS (data not shown)): did not alter NO levels produced by non-activated cells

— article PMC3792051, “Polyenylpyrrole Derivatives Inhibit NLRP3 Inflammasome Activation and Inflammatory Mediator Expression by Reducing Reactive Oxygen Species Production and Mitogen-Activated Protein Kinase Activation” (PLoS ONE, 2013)
